In article PMC9918900, “New Succinimide–Thiazolidinedione Hybrids as Multitarget Antidiabetic Agents: Design, Synthesis, Bioevaluation, and Molecular Modelling Studies” (Molecules, 2023):

Experiments:
rats = experiment: acute oral toxicity study, limit test (OECD up and down procedure); assay type: in vivo
Description: For the acute toxicity study, a limit test on the laboratory animals at 2000 mg/kg body weight was selected and the up and down procedure (UDP) was followed as per the guidelines of the Organization for Economic Cooperation and Development (OECD). The purpose was to evaluate the dose necessary to perform various pharmacological activities.
Healthy young adult male rats of about 8 to 12 weeks old were selected for dosing.
The rats were randomly selected, marked for an individual identification, and retained in their cages for at least 5 days before dosing to acclimatize to the laboratory conditions. Prior to dosing, the animals were fasted and they were refrained from food, not water, for 16–18 h.
After the fasting period, the weight of each animal was determined and according to the body weight of the animals, the dose at 2000 mg/kg body weight was calculated for each animal. A unique dose of the studied compound 10d was administered to the animals for the UDP study by the oral route using an intragastric cannula 16 G, and it was planned to dose the five animals on the same day. […] The onset time, toxic reactions, and length of the recovery period determined the duration of the observation and when considered necessary, may be extended. […] Individual observations were recorded and maintained systematically for each animal. […]

[1] = test system: streptozotocin-induced diabetic rats; experiment: serum insulin level estimation; assay type: in vivo, Wistar rats; parameters: unit not given here; settings: for Insulin Level (Mean ±SEM), Final Reading: 28th day
Description: (§1) Non-insulin-dependent diabetes mellitus was induced in fasted rats weighing 150–230 gm using a single dose of streptozotocin (STZ) at a dose of 60 mg/kg intraperitoneally after 15 min of the administration of nicotinamide at a 120 mg/kg dose i.p. Nicotinamide was prepared in normal saline while in citrate buffer (pH 4.5), STZ was prepared. After the induction of diabetes, the increase in the plasma glucose level was measured at 72 h and then measured on the 7th day to confirm hyperglycemia. For the diagnosis of diabetes, the threshold value of the fasting plasma glucose level was considered to be more than 126 mg/dl. For the study, only the animals with permanent NIIDM were utilized.
(§2) The animals were classified into 5 groups with 6 animals in each group (n = 6). Group I comprised of normal control rats which were daily administered drinking water only; group II served as diabetic control rats (disease group); group III served as the positive control and were administered 0.5 mg/kg of the standard drug glibenclamide; and group IV and V served as the test group rats and were administered the test compound 10d at 10 mg/kg and 20 mg/kg, respectively, for twenty-eight days. The fasting glucose concentration was measured on the 0, 7th, 14th, and 28th day of the administration of the extract. During the experimental tenure, the weights of the rats were determined daily and the mean change was recorded.
After the 28th day of treatment with the test compound 10d, the blood samples were taken for the determination of the insulin levels, which were measured with the help of GLAZYME INSULIN-EIA TEST.

α-amylase = molecular target: T1, α-amylase (Homo sapiens, UniProt P04746); experiment: in vitro α-amylase inhibitory activity; assay type: biochemical
T1 sequence (P04746 16-511): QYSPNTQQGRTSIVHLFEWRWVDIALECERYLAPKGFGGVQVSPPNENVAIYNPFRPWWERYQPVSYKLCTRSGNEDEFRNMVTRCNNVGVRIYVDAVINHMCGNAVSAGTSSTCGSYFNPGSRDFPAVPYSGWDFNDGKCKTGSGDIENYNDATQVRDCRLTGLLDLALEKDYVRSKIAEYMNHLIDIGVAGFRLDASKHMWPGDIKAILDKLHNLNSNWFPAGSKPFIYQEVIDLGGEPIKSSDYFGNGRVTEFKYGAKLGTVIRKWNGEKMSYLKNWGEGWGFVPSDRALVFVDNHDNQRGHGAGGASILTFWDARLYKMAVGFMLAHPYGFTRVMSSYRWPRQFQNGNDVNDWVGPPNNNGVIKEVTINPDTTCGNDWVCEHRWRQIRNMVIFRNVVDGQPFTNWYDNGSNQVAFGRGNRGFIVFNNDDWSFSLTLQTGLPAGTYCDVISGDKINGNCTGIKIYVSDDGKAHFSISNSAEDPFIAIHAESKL
Description: The test samples were added in alpha-amylase solution. The enzyme solution was prepared with enzyme and buffer solution. The mixture of the samples and enzyme was then incubated. Then, starch and dinitrosalicylic acid solution was added. The same was performed for both test compounds and the standard drug. […] The percent alpha-amylase inhibition activity and its IC50 values were calculated and confirmed as per the previous procedure.

[2] = test system: streptozotocin-induced diabetic rats; experiment: effect on body weight; assay type: in vivo, Wistar rats; settings: for Change in Body Weight, After Treatment: 28 days
Description: (§3) The antidiabetic activity of the synthesized compound 10d was evaluated using a streptozotocin-induced diabetic rats model.
(§4) Male Wistar rats weighing 150 to 230 gm were used for the study which were housed in polyacrylic cages (no more than six animals per cage) with dimensions of 38 × 23 × 10 cm and maintained under standard laboratory conditions with a dark/light cycle of 14 h of dark and 10 h of light at a temperature of 25 °C. The animals were provided with a standard diet (dry pellet) and water ad libitum. Before the start of the experimental procedures, the rats were acclimatized to laboratory conditions for 10 days. All the experiments were approved and performed as per the guidelines of the Departmental Research Ethics Committee under letter No. DREC/050 [49].
as §1, §2

[3] = test system: streptozotocin-induced diabetic rats; experiment: in vivo antidiabetic activity, fasting plasma glucose level; parameters: species or system Wistar rats; settings: STZ-induced diabetic rats, 28th day
Description: as §3, §4, §1
The animals were classified into 5 groups with 6 animals in each group (n = 6). […] The fasting glucose concentration was measured on the 0, 7th, 14th, and 28th day of the administration of the extract. During the experimental tenure, the weights of the rats were determined daily and the mean change was recorded.

In the case of `CC(C)(C=C1SC(=O)N(C(=O)CN2CCOCC2)C1=O)C1CC(=O)N(Cc2ccccc2)C1=O` (centres unmarked) [10d], the “acute toxicity observation (behavior, mortality)” value (rats; limit dose 2000 mg/kg body weight, observed 14 days) is reported as “no abnormal changes in their behavior and no mortality”, the “LD50 class as per OECD guidelines” value (rats; maximum dose 2000 mg/kg) is reported as “class IV” and the “Insulin Level (Mean ±SEM), Initial Reading” value ([1]; 10mg (10 mg/kg) group) is reported as 0.81 ± 0.25. For the same compound, the “Insulin Level (Mean ±SEM), Final Reading” value ([1]; 10mg (10 mg/kg) group) was 0.65 ± 0.57, the “Insulin Level (Mean ±SEM), Initial Reading” value ([1]; 20mg (20 mg/kg) group) was 0.76 ± 0.38 and the “Insulin Level (Mean ±SEM), Final Reading” value ([1]; 20mg (20 mg/kg) group) was 0.76 ± 0.81. It also gave an IC50 (α-amylase) of 12 µM, an inhibition at 31.25 µM (α-amylase; 31.25 µM, read-out: % α-Amylase Inhibition (converted)) of 68.6% and an inhibition at 62.5 µM (α-amylase; 62.5 µM, read-out: % α-Amylase Inhibition (converted)) of 70%. For the same compound, the inhibition at 125 µM (α-amylase; 125 µM, read-out: % α-Amylase Inhibition (converted)) was 72.7%, the inhibition at 250 µM (α-amylase; 250 µM, read-out: % α-Amylase Inhibition (converted)) was 76.3% and the inhibition at 500 µM (α-amylase; 500 µM, read-out: % α-Amylase Inhibition) was 82.3 ± 1.2%. For the same compound, the “Change in Body Weight, After Induction” value ([2]; 10mg (10 mg/kg) group) was 154.22 ± 3.62 gm, the “Change in Body Weight, Before Induction” value ([2]; 10mg (10 mg/kg) group) was 191.23 ± 1.50 ^ns gm and the “Change in Body Weight, After Treatment” value ([2]; 10mg (10 mg/kg) group) was 182.43 ± 5.76 gm. For the same compound, the “Change in Body Weight, After Induction” value ([2]; 20mg (20 mg/kg) group) was 171.60 ± 1.90 ^ns gm, the “Change in Body Weight, Before Induction” value ([2]; 20mg (20 mg/kg) group) was 204.66 ± 3.60 gm and the “Change in Body Weight, After Treatment” value ([2]; 20mg (20 mg/kg) group) was 198.19 ± 4.66 gm. The blood glucose level ([3]; 10 mg/kg) was 93.15 mg/dL and the blood glucose level ([3]; 20 mg/kg) was 70.60 mg/dL.
